Measurements from ChEMBL document CHEMBL1201862, “PubChem BioAssay data set” (2004).
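Dose response: 5 concentrations. Exposure: 48 h. Format: 96-well plates. Endpoint: linear interpolation; highest concentration if not reached. At the GI50, growth is halved.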 The source made the active and inactive calls. Cut-off read from the data, not from the text of the source: active = GI50 up to about 1.1 µM and inactive = higher.

How the values were obtained:
Assay in all cases: DTP human tumour cell line panel, 48 h
UACC-257 = system: UACC-257
HOP-62 = system: HOP-62
SNB-19 = system: SNB-19
SK-OV-3 = system: SK-OV-3
SW-620 = system: SW-620
HOP-92 = system: HOP-92
HCT-15 = system: HCT-15
OVCAR-8 = system: OVCAR-8
786-0 = system: 786-0
UACC-62 = system: UACC-62
SNB-75 = system: SNB-75
K562 = system: K562
SF-539 = system: SF-539
ACHN = system: ACHN
NCI-H23 = system: NCI-H23
NCI/ADR-RES = system: NCI/ADR-RES
PC-3 = system: PC-3
DU-145 = system: DU-145
MDA-N = system: MDA-N

Structure (SMILES) | GI50 (UACC-257) | GI50 (HOP-62) | GI50 (SNB-19) | GI50 (SK-OV-3) | GI50 (SW-620) | GI50 (HOP-92) | GI50 (HCT-15) | GI50 (OVCAR-8) | GI50 (786-0) | GI50 (UACC-62) | GI50 (SNB-75) | GI50 (K562) | GI50 (SF-539) | GI50 (ACHN) | GI50 (NCI-H23) | GI50 (NCI/ADR-RES) | GI50 (PC-3) | GI50 (DU-145) | GI50 (MDA-N)
NC1=NN(c2ccccc2)C(=O)C1/C(=N\NC(=O)c1cc2ccccc2cc1O)C(=O)Nc1nc([N+](=O)[O-])cs1 (stereo unspecified) | 22.2 µM (inactive) | 54 µM (inactive) | > 60.1 µM (inactive) | 55.7 µM (inactive) | 27.9 µM (inactive) | 13.7 µM (inactive) | 24.3 µM | 19.5 µM (inactive) | 31.5 µM (inactive) | 19.6 µM (inactive) | 18.5 µM (inactive) | 9.64 µM (inactive) | 23.9 µM (inactive) | 34.4 µM (inactive) | 18.4 µM (inactive) |  |  |  | 
CC1CC(C2=CC=CCS2)=Nc2ccccc2S1 (stereo unspecified) | 12.3 µM (inactive) | > 100 µM (inactive) | 71.3 µM (inactive) | > 100 µM (inactive) | > 100 µM (inactive) | 48.4 µM (inactive) | > 100 µM | > 100 µM (inactive) | > 100 µM (inactive) | > 100 µM (inactive) | 14.1 µM (inactive) | > 100 µM (inactive) | > 100 µM (inactive) | > 100 µM (inactive) | > 100 µM (inactive) |  |  |  | 
CC(C)N(C(=O)C12C3C4C5C3C1(C(=O)N(C(C)C)C(C)C)C5C42)C(C)C (stereo unspecified) | > 100 µM (inactive) | > 100 µM (inactive) | > 100 µM (inactive) | > 100 µM (inactive) | > 52.4 µM (inactive) | > 100 µM (inactive) | > 71.8 µM | > 60.5 µM (inactive) | > 100 µM (inactive) | > 100 µM (inactive) | > 100 µM (inactive) | > 39.2 µM (inactive) | > 100 µM (inactive) | > 100 µM (inactive) | > 100 µM (inactive) |  |  |  | 
CC(=O)OCC1OC(n2c(=O)[nH]c(=O)c3sccc32)C(Br)C1OC(C)=O (stereo unspecified) | > 100 µM (inactive) | > 100 µM (inactive) | > 100 µM (inactive) |  | > 100 µM (inactive) | > 100 µM (inactive) | > 100 µM | > 100 µM (inactive) | > 100 µM (inactive) |  | > 100 µM (inactive) | > 100 µM (inactive) | > 100 µM (inactive) | > 100 µM (inactive) | > 100 µM (inactive) | > 100 µM (inactive) | > 100 µM (inactive) | > 100 µM (inactive) | > 100 µM (inactive)
Cc1cs/c(=N\C(P(=O)(O)O)P(=O)(O)O)n1C | > 100 µM (inactive) | > 100 µM (inactive) | > 100 µM (inactive) | > 100 µM (inactive) | > 100 µM (inactive) | 42.9 µM (inactive) | > 100 µM | > 100 µM (inactive) | 90.8 µM (inactive) | > 100 µM (inactive) | > 100 µM (inactive) | > 100 µM (inactive) | > 100 µM (inactive) | > 100 µM (inactive) | > 100 µM (inactive) | > 100 µM (inactive) | > 100 µM (inactive) | > 100 µM (inactive) | > 100 µM (inactive)
CC(=O)OC1CC2C(C)(C)C(=O)C=C[C@]2(C)C2CCC3(C)C(c4ccoc4)[C@@H](O)[C@H]4O[C@]43[C@]12C (stereo partly specified) | 21.4 µM (inactive) | 22.7 µM (inactive) | 24 µM (inactive) | 20.7 µM (inactive) | 18.9 µM (inactive) | 20.3 µM (inactive) | 17.4 µM | 18.3 µM (inactive) | 17.5 µM (inactive) | 16.2 µM (inactive) | 24 µM (inactive) | 16.4 µM (inactive) | 17.9 µM (inactive) | 21.8 µM (inactive) | 18.1 µM (inactive) |  |  |  | 
CC1(C)N=C(N)N=C(N)N1c1cccc(OCCOc2ccc([N+](=O)[O-])cc2)c1 | 57.7 µM (inactive) | > 100 µM (inactive) | 37.8 µM (inactive) | > 100 µM (inactive) | 3.68 µM (inactive) | > 100 µM (inactive) | > 100 µM | 74.6 µM (inactive) | 4.99 µM (inactive) |  |  | 41.9 µM (inactive) | 15.2 µM (inactive) | > 100 µM (inactive) | 4.9 µM (inactive) |  | 0.822 µM (active) | 20.1 µM (inactive) | 5.26 µM (inactive)
COc1ccc2cc3[n+](cc2c1OC)CCc1cc(O)c(O)cc1-3 | > 100 µM (inactive) | > 100 µM (inactive) | > 100 µM (inactive) | > 100 µM (inactive) | > 100 µM (inactive) | > 100 µM (inactive) | > 100 µM | > 100 µM (inactive) | > 100 µM (inactive) | > 100 µM (inactive) | > 100 µM (inactive) | > 100 µM (inactive) | > 100 µM (inactive) |  | > 100 µM (inactive) |  |  |  | 
